Tests used:
[1] = biological target: T1, GLUT3 (Homo sapiens, UniProt P11169); settings: literature; cited from earlier work
T1 construct: host or cells: Xenopus oocytes mainly; also COS-7, CHO, yeast variants (not tied to single values)
T1 sequence (P11169 1-496): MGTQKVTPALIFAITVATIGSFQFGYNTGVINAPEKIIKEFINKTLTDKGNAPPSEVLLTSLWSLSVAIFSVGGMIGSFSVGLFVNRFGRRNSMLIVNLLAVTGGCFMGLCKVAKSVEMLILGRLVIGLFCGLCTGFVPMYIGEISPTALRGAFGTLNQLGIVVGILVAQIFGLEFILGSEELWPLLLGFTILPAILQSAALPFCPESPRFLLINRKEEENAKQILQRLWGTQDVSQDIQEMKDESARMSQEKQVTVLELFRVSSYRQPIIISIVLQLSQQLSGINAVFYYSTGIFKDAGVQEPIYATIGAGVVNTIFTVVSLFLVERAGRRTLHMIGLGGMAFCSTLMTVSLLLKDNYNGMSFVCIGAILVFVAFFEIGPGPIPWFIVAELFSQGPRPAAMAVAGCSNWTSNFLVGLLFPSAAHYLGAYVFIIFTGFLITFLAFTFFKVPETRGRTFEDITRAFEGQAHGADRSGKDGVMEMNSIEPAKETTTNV

[2] = biological target: T2, GLUT7 (Homo sapiens, UniProt Q6PXP3); settings: literature; cited from earlier work
T2 construct: host or cells: Xenopus oocytes mainly; also COS-7, CHO, yeast variants (not tied to single values)
T2 sequence (Q6PXP3 1-512): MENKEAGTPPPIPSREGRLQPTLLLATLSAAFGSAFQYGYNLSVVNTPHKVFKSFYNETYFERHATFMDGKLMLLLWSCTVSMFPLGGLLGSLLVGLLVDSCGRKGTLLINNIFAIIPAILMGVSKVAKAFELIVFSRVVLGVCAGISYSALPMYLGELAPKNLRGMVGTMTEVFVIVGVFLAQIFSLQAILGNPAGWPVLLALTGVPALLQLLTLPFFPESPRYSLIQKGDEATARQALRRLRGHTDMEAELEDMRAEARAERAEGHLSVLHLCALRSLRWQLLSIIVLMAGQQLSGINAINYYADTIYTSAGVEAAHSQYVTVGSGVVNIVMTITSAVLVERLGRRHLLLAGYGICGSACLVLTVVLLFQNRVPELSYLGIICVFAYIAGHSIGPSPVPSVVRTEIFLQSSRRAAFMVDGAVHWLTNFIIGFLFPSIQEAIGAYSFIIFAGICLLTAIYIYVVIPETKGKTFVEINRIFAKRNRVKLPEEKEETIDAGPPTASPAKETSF

[3] = biological target: T3, GLUT9 (Homo sapiens, UniProt Q9NRM0); settings: literature; cited from earlier work
T3 construct: host or cells: Xenopus oocytes mainly; also COS-7, CHO, yeast variants (not tied to single values)
T3 sequence (Q9NRM0 1-540): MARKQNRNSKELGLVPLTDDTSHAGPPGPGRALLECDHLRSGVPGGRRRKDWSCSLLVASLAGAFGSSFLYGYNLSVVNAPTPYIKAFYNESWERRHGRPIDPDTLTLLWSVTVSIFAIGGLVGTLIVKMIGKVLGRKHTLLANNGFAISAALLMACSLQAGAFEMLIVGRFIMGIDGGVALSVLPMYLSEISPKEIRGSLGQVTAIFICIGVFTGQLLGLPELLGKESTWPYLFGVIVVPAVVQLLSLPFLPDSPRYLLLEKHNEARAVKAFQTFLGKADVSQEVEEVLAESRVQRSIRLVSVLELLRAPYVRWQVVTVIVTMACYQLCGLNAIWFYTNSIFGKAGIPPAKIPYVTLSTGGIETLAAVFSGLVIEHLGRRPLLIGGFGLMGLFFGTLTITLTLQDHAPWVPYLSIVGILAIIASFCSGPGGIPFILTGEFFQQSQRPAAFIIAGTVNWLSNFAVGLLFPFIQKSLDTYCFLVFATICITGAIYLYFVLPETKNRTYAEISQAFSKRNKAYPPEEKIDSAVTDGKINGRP

[4] = system: MCF10A (immortalized breast), MCF7 (breast cancer), A549 (non-small cell lung cancer), Du145 (prostrate cancer), RWPE (immortalized prostrate); assay: Sugar transporter assay: uptake of sugar-fluorophore conjugates by intracellular fluorescence, normalized to cell number; assay type: cell-based; settings: 1 hour incubation; dose range 250-0 μM; five cell lines; compared with D-glucose conjugate
Procedure: FIG. 5. Representative sugar transporter assays. […] For each cell line, the dose range was 250 μM, 125 μM, 62.5 μM, 31.3 μM, 15.6 μM, 7.8 μM, 3.9 μM and 0 μM. The average error (40 compounds, 5 cell lines) was 8.3%.
For the sugar transporter assay of the present invention, cells were plated at a density of 30,000 cells/ml (100 μL/well) in a 96-well clear bottom microtiter plates. Cells were allowed to attach overnight, and then incubated in glucose-free medium for an additional 24 hours. Compounds were added (from 96-well compound stock plates at a 1:100 dilution) using a Biomek FX liquid handler equipped with a 96 channel head. The plates were incubated for 1 hour and then the compound solution was removed by gentle aspiration. The cells were subsequently washed (1×100 μL) with phosphate buffered saline to remove residual fluorescent dye.
Sugar-conjugate uptake was assessed via intracellular fluorescence (FIG. 4b-4f) as determined using a Safire2™ multi-mode microplate reader (δex=485 nm, δem=535 nm) and normalized to cell number by a subsequent CellTiter-Glo® luminescent cell viability assay. […] The CellTiter-Glo® luminescent cell viability assay was analyzed on a Safire2™ multi-mode microplate reader for luminescence at 1 second per well. As an initial preliminary study, the transport assay with a representative set of probes was also analyzed using microscopy (FIG. 6).

[5] = biological target: T4, GLUT11 (Homo sapiens, UniProt Q9BYW1); settings: literature; cited from earlier work
T4 construct: host or cells: Xenopus oocytes mainly; also COS-7, CHO, yeast variants (not tied to single values)
T4 sequence (Q9BYW1 1-496): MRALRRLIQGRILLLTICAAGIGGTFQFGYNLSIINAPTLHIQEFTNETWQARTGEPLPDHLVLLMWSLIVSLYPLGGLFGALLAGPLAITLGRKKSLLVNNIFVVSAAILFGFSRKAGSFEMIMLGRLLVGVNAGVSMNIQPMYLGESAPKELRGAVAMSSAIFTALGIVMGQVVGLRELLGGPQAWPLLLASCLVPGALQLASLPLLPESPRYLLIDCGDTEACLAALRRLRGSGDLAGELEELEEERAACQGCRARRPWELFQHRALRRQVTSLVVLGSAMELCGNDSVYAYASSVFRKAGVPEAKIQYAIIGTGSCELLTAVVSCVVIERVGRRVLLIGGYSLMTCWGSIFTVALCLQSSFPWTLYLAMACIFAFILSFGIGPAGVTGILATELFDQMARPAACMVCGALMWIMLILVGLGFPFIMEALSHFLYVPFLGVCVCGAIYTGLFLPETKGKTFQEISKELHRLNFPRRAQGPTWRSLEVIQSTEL

[6] = biological target: T5, GLUT5 (Homo sapiens, UniProt P22732); settings: literature; cited from earlier work
T5 construct: host or cells: Xenopus oocytes mainly; also COS-7, CHO, yeast variants (not tied to single values)
T5 sequence (P22732 1-501): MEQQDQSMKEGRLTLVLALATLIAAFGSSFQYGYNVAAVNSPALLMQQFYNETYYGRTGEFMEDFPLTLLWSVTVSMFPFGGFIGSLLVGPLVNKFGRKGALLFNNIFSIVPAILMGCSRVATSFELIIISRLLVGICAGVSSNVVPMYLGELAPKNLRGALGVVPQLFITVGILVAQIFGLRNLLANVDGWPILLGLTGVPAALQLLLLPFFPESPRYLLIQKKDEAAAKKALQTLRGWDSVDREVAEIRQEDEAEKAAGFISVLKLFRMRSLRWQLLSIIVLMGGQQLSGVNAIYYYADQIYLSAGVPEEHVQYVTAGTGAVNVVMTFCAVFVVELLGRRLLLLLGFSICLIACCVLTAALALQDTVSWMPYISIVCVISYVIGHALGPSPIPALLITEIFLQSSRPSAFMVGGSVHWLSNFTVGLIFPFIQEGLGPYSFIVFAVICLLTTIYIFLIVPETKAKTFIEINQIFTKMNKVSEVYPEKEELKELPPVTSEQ

[7] = compared with the parent ifosfamide; cited from earlier work
[8] = biological target: T6, GLUT2 (Homo sapiens, UniProt P11168); settings: literature; cited from earlier work
T6 construct: host or cells: Xenopus oocytes mainly; also COS-7, CHO, yeast variants (not tied to single values)
T6 sequence (P11168 1-524): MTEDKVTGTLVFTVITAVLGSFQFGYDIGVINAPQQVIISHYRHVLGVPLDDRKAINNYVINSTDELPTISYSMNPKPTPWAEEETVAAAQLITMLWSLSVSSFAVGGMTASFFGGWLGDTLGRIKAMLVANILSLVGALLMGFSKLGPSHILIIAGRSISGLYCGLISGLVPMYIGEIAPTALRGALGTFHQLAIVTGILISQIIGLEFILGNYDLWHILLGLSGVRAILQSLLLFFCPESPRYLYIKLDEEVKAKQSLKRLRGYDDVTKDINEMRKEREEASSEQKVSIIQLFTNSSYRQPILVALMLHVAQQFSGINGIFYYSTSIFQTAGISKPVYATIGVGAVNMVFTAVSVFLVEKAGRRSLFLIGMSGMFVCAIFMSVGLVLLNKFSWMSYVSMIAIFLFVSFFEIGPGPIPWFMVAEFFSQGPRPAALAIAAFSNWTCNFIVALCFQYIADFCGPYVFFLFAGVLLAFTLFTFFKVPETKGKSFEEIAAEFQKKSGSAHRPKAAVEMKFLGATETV

In the case of `O=CC[C@@H](O)[C@H](O)[C@H](O)CO` [2-deoxyglucose], the “affinity for GLUT3” value [1] is listed as “approximately 1.5 mM”, the “transport by GLUT7” value [2] is listed as “does not transport” and the “transport by GLUT9” value [3] is listed as “transport”.

With aminofluoroscein [parent 11] the “sugar-conjugate uptake (intracellular fluorescence normalized to cell number)” value [4] was “No uptake”.

In the case of `O=C[C@H](O)[C@@H](O)[C@@H](O)[C@H](O)CO` [galactose], the “transport by GLUT11” value [5] is listed as “not galactose” and the “transport by GLUT7” value [2] is listed as “does not transport”.

In the case of `O=C(CO)[C@@H](O)[C@H](O)[C@H](O)CO` [fructose], the “transport by GLUT11” value [5] is listed as “provides for transport” and the “affinity for GLUT5” value [6] is listed as “approximately 1 mM”.

For `O=P(NCCCl)(NCCCl)O[C@@H]1O[C@H](CO)[C@@H](O)[C@H](O)[C@H]1O` [glufosfamide], the antitumor activity [7] is listed as “higher antitumor activity” and the myelotoxicity [7] is listed as “lower myelotoxicity”.

For `N[C@H]1C(O)O[C@H](CO)[C@@H](O)[C@@H]1O` (stereo partly drawn) [glucosamine], the “affinity for GLUT2” value [8] is listed as “approximately 1 mM”.

In the case of `O=C[C@H](O)[C@@H](O)[C@H](O)CO` [xylose], the “transport by GLUT7” value [2] is listed as “does not transport”.
